According to article PMC6858927 (Investigational new drugs, 2019):
Like-named read-outs stand apart in the source and are kept apart here.

[1] = Cohort A: 200mg, cytarabine, Daunorubicin (n=5), Total
[2] = Cohort A: 200mg, cytarabine, Daunorubicin (n=5), grade 1&2
[3] = Cohort A: 200mg, cytarabine, Daunorubicin (n=5), grade 3+
[4] = Cohort B Dose 2: 400mg, Decitabine (n=2), Total
[5] = Cohort B Dose 2: 400mg, Decitabine (n=2), grade 1&2
[6] = Cohort B Dose 2: 400mg, Decitabine (n=2), grade 3+

C1=C/COCc2cc(ccc2OCCN2CCCC2)Nc2nccc(n2)-c2cccc(c2)COC/1 [Pacritinib, 11-(2-pyrrolidin-1-yl-ethoxy)-14,19-dioxa-5,7,26-triaza-tetracyclo[19.3.1.1(2,6). 1(8,12)]heptacosa-1(25),2(26),3,5,8,10,12(27),16,21,23-decaene]
HYPOXIA, patients (%) [1]: 2 (40)
LUNG INFECTION, patients (%) [1]: 1 (20)
LYMPHOCYTE COUNT DECREASED, patients (%) [1]: 3 (60)
MUCOSITIS ORAL, patients (%) [1]: 2 (40)
NAUSEA, patients (%) [1]: 3 (60)
NEUTROPHIL COUNT DECREASED, patients (%) [1]: 2 (40)
PLATELET COUNT DECREASED, patients (%) [1]: 5 (100)
PLEURAL EFFUSION, patients (%) [1]: 1 (20)
PRURITUS, patients (%) [1]: 4 (80)
RASH MACULO-PAPULAR, patients (%) [1]: 2 (40)
RASH, patients (%) [1]: 2 (40)
RESPIRATORY FAILURE, patients (%) [1]: 2 (40)
VOMITING, patients (%) [1]: 0
WHITE BLOOD CELL DECREASED, patients (%) [1]: 4 (80)
ACTIVATED PARTIAL THROMBOPLASTIN TIME PROLONGED, patients (%) [2]: 1 (20)
ANEMIA, patients (%) [2]: 0
ANOREXIA, patients (%) [2]: 0
CONSTIPATION, patients (%) [2]: 0
DIARRHEA, patients (%) [2]: 3 (60)
DYSPNEA, patients (%) [2]: 1 (20)
EDEMA LIMBS, patients (%) [2]: 1 (20)
ELECTROCARDIOGRAM QT CORRECTED INTERVAL PROLONGED, patients (%) [2]: 4 (80)
FATIGUE, patients (%) [2]: 3 (60)
FEBRILE NEUTROPENIA, patients (%) [2]: 0
HYPERGLYCEMIA, patients (%) [2]: 1 (20)
HYPERTENSION, patients (%) [2]: 1 (20)
HYPOALBUMINEMIA, patients (%) [2]: 2 (40)
HYPOKALEMIA, patients (%) [2]: 1 (20)
HYPOPHOSPHATEMIA, patients (%) [2]: 0
HYPOXIA, patients (%) [2]: 0
LUNG INFECTION, patients (%) [2]: 0
LYMPHOCYTE COUNT DECREASED, patients (%) [2]: 1 (20)
MUCOSITIS ORAL, patients (%) [2]: 2 (40)
NAUSEA, patients (%) [2]: 3 (60)
NEUTROPHIL COUNT DECREASED, patients (%) [2]: 0
PLATELET COUNT DECREASED, patients (%) [2]: 0
PLEURAL EFFUSION, patients (%) [2]: 1 (20)
PRURITUS, patients (%) [2]: 4 (80)
RASH MACULO-PAPULAR, patients (%) [2]: 1 (20)
RASH, patients (%) [2]: 2 (40)
RESPIRATORY FAILURE, patients (%) [2]: 0
VOMITING, patients (%) [2]: 0
WHITE BLOOD CELL DECREASED, patients (%) [2]: 0
ELECTROCARDIOGRAM QT CORRECTED INTERVAL PROLONGED, patients (%) (Cohort A: 200mg, cytarabine, Daunorubicin (n=5), grade 1&2, listed as pacritinib): Four
ACTIVATED PARTIAL THROMBOPLASTIN TIME PROLONGED, patients (%) [3]: 0
ANEMIA, patients (%) [3]: 3 (60)
ANOREXIA, patients (%) [3]: 0
CONSTIPATION, patients (%) [3]: 0
DIARRHEA, patients (%) [3]: 0
DYSPNEA, patients (%) [3]: 0
EDEMA LIMBS, patients (%) [3]: 0
ELECTROCARDIOGRAM QT CORRECTED INTERVAL PROLONGED, patients (%) [3]: 0
FATIGUE, patients (%) [3]: 0
FEBRILE NEUTROPENIA, patients (%) [3]: 3 (60)
HYPERGLYCEMIA, patients (%) [3]: 0
HYPERTENSION, patients (%) [3]: 1 (20)
HYPOALBUMINEMIA, patients (%) [3]: 0
HYPOKALEMIA, patients (%) [3]: 0
HYPOPHOSPHATEMIA, patients (%) [3]: 1 (20)
HYPOXIA, patients (%) [3]: 2 (40)
LUNG INFECTION, patients (%) [3]: 1 (20)
LYMPHOCYTE COUNT DECREASED, patients (%) [3]: 2 (40)
MUCOSITIS ORAL, patients (%) [3]: 0
NAUSEA, patients (%) [3]: 0
NEUTROPHIL COUNT DECREASED, patients (%) [3]: 2 (40)
PLATELET COUNT DECREASED, patients (%) [3]: 5 (100)
PLEURAL EFFUSION, patients (%) [3]: 0
PRURITUS, patients (%) [3]: 0
RASH MACULO-PAPULAR, patients (%) [3]: 1 (20)
RASH, patients (%) [3]: 0
RESPIRATORY FAILURE, patients (%) [3]: 2 (40)
VOMITING, patients (%) [3]: 0
WHITE BLOOD CELL DECREASED, patients (%) [3]: 4 (80)
ACTIVATED PARTIAL THROMBOPLASTIN TIME PROLONGED, patients (%) [4]: 0
ANEMIA, patients (%) [4]: 2 (100)
ANOREXIA, patients (%) [4]: 0
CONSTIPATION, patients (%) [4]: 1 (50)
DIARRHEA, patients (%) [4]: 0
DYSPNEA, patients (%) [4]: 1 (50)
EDEMA LIMBS, patients (%) [4]: 0
ELECTROCARDIOGRAM QT CORRECTED INTERVAL PROLONGED, patients (%) [4]: 0
FATIGUE, patients (%) [4]: 0
FEBRILE NEUTROPENIA, patients (%) [4]: 0
HYPERGLYCEMIA, patients (%) [4]: 1 (50)
HYPERTENSION, patients (%) [4]: 1 (50)
HYPOALBUMINEMIA, patients (%) [4]: 0
HYPOKALEMIA, patients (%) [4]: 1 (50)
HYPOPHOSPHATEMIA, patients (%) [4]: 0
HYPOXIA, patients (%) [4]: 0
LUNG INFECTION, patients (%) [4]: 0
LYMPHOCYTE COUNT DECREASED, patients (%) [4]: 1 (50)
MUCOSITIS ORAL, patients (%) [4]: 0
NAUSEA, patients (%) [4]: 1 (50)
NEUTROPHIL COUNT DECREASED, patients (%) [4]: 1 (50)
PLATELET COUNT DECREASED, patients (%) [4]: 1 (50)
PLEURAL EFFUSION, patients (%) [4]: 0
PRURITUS, patients (%) [4]: 0
RASH MACULO-PAPULAR, patients (%) [4]: 0
RASH, patients (%) [4]: 0
RESPIRATORY FAILURE, patients (%) [4]: 0
VOMITING, patients (%) [4]: 1 (50)
WHITE BLOOD CELL DECREASED, patients (%) [4]: 1 (50)
ACTIVATED PARTIAL THROMBOPLASTIN TIME PROLONGED, patients (%) [5]: 0
ANEMIA, patients (%) [5]: 1 (50)
ANOREXIA, patients (%) [5]: 0
CONSTIPATION, patients (%) [5]: 1 (50)
DIARRHEA, patients (%) [5]: 0
DYSPNEA, patients (%) [5]: 1 (50)
EDEMA LIMBS, patients (%) [5]: 0
ELECTROCARDIOGRAM QT CORRECTED INTERVAL PROLONGED, patients (%) [5]: 0
FATIGUE, patients (%) [5]: 0
FEBRILE NEUTROPENIA, patients (%) [5]: 0
HYPERGLYCEMIA, patients (%) [5]: 1 (50)
HYPERTENSION, patients (%) [5]: 1 (50)
HYPOALBUMINEMIA, patients (%) [5]: 0
HYPOKALEMIA, patients (%) [5]: 0
HYPOPHOSPHATEMIA, patients (%) [5]: 0
HYPOXIA, patients (%) [5]: 0
LUNG INFECTION, patients (%) [5]: 0
LYMPHOCYTE COUNT DECREASED, patients (%) [5]: 0
MUCOSITIS ORAL, patients (%) [5]: 0
NAUSEA, patients (%) [5]: 0
NEUTROPHIL COUNT DECREASED, patients (%) [5]: 0
PLATELET COUNT DECREASED, patients (%) [5]: 0
PLEURAL EFFUSION, patients (%) [5]: 0
PRURITUS, patients (%) [5]: 0
RASH MACULO-PAPULAR, patients (%) [5]: 0
RASH, patients (%) [5]: 0
RESPIRATORY FAILURE, patients (%) [5]: 0
VOMITING, patients (%) [5]: 1 (50)
WHITE BLOOD CELL DECREASED, patients (%) [5]: 0
ACTIVATED PARTIAL THROMBOPLASTIN TIME PROLONGED, patients (%) [6]: 0
ANEMIA, patients (%) [6]: 1 (50)
ANOREXIA, patients (%) [6]: 0
CONSTIPATION, patients (%) [6]: 0
DIARRHEA, patients (%) [6]: 0
DYSPNEA, patients (%) [6]: 0
EDEMA LIMBS, patients (%) [6]: 0
ELECTROCARDIOGRAM QT CORRECTED INTERVAL PROLONGED, patients (%) [6]: 0
FATIGUE, patients (%) [6]: 0
FEBRILE NEUTROPENIA, patients (%) [6]: 0
HYPERGLYCEMIA, patients (%) [6]: 0
